Test results from US20230158157A1, “POTENT AND SELECTIVE DEGRADERS OF ALK” (DANA-FARBER CANCER INSTITUTE, INC., priority 2020, published 2023).
Where two headings read alike, the source gives them in different places.

Key:
EML4-ALK = target: T1, EML4-ALK (Homo sapiens, UniProt Q9UM73); assay: EML4-ALK HiBit degradation assay in CRISPR-tagged H3122 cells (Nano-Glo HiBit Lytic Detection); format: cell-based
T1 construct: endogenous in cells; host or cells: H3122 (NSCLC), single-cell clone after CRISPR knock-in of HiBit; the other entry of the earlier key: EML4 (Q9HC35, Echinoderm microtubule-associated protein-like 4)
Procedure: (§1) NSCLC cell line H3122 was subjected to CRISPR to express EML4-ALK with HiBit-tag on its c-terminal. Single-cell clone was selected and expanded for the following assays that monitor endogenous EML4-ALK level in high throughput manner. Cells were seeded in 384-well white Tissue-culture plates at 3000 cells/well for 8 hours. […] HiBit signal was assessed using Nano-Glo® HiBit Lytic Detection System (Promega™). Degrader-treated was normalized by DMSO-treated controls and DC50 and Dmax were generated by GraphPad Prism® 8.0.
as §1, with “its c-terminus. A single-cell” for “its c-terminal. Single-cell”, “Degrader-treated cells were” for “Degrader-treated was”
as §1, with “its C-terminus. A single-cell” for “its c-terminal. Single-cell”, “Degrader-treated cells were” for “Degrader-treated was”

H3122 cells = assay: CTG; format: cell-based; conditions: read-out: CTG IC50
[1] = NCI-H3122, Table 1, first Dmax column, H3122 EML4-ALK-HiBit, 16 hours, read-out: Degradation Dmax
[2] = NCI-H3122, Table 1, average Dmax, read-out: Degradation Avg. Dmax
[3] = Table 1, first DC50 column, H3122 EML4-ALK-HiBit, 16 hours, read-out: Degradation DC50
[4] = Table 1, average DC50, read-out: Degradation Avg. DC50
[5] = Homo sapiens, NCI-H3122, Table 1
[6] = Table 1, second DC50 column, H3122 EML4-ALK-HiBit, 16 hours, read-out: Degradation DC50
[7] = NCI-H3122, Table 2, first Dmax column, H3122 EML4-ALK-HiBit, 16 hours, read-out: Degradation Dmax
[8] = NCI-H3122, Table 2, second Dmax column, H3122 EML4-ALK-HiBit, 16 hours, read-out: Degradation Dmax
[9] = NCI-H3122, Table 2, average Dmax, read-out: Degradation Avg. Dmax
[10] = Table 2, first DC50 column, H3122 EML4-ALK-HiBit, 16 hours, read-out: Degradation DC50
[11] = Table 2, second DC50 column, H3122 EML4-ALK-HiBit, 16 hours, read-out: Degradation DC50
[12] = Table 2, average DC50, read-out: Degradation Avg. DC50
[13] = Homo sapiens, NCI-H3122, Table 2
[14] = NCI-H3122, Table 1, second Dmax column, H3122 EML4-ALK-HiBit, 16 hours, read-out: Degradation Dmax

T1 sequence (Q9UM73 with tags, fused parts or gaps): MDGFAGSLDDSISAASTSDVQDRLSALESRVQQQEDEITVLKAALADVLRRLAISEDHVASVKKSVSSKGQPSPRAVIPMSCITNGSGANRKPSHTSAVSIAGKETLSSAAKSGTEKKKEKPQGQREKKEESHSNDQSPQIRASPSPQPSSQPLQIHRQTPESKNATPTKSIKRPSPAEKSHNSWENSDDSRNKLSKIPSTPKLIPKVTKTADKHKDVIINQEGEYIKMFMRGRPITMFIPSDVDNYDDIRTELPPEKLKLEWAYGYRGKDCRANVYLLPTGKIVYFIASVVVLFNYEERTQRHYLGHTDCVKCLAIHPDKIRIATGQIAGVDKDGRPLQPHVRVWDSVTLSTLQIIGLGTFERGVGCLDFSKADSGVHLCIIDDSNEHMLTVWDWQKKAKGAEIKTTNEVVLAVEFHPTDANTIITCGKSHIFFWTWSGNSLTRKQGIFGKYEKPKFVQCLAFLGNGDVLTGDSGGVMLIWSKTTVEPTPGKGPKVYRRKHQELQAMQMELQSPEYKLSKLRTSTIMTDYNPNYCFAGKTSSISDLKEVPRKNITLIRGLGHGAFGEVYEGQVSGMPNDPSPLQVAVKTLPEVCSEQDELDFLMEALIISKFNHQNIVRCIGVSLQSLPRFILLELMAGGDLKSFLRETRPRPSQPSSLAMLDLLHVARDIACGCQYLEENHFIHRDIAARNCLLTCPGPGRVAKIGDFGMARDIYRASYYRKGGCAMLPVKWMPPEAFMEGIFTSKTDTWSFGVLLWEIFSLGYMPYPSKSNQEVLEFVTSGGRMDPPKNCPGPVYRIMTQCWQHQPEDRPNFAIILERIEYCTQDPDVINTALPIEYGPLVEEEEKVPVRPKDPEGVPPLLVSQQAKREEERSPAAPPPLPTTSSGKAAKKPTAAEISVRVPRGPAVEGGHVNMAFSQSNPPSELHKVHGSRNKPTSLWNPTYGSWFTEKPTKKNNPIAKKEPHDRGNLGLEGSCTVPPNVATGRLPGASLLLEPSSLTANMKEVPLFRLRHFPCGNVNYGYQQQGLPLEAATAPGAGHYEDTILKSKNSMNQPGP

Structure (SMILES)	Dmax (EML4-ALK; [1])	Dmax (EML4-ALK; [2])	DC50 (EML4-ALK; [3])	DC50 (EML4-ALK; [4])	IC50 (H3122 cells; [5])	DC50 (EML4-ALK; [6])	IC50 (H3122 cells; Table 1)	Dmax (EML4-ALK; [7])	Dmax (EML4-ALK; [8])	Dmax (EML4-ALK; [9])	DC50 (EML4-ALK; [10])	DC50 (EML4-ALK; [11])	DC50 (EML4-ALK; [12])	IC50 (H3122 cells; [13])	Dmax (EML4-ALK; [14])
COc1cc(CCN(C)CCCCCNc2cccc3c2C(=O)N(C2CCC(=O)NC2=O)C3=O)c(C)cc1Nc1ncc(Cl)c(Nc2ccccc2S(=O)(=O)C(C)C)n1 (centres unmarked) [Compound 50]			57 nM	41 nM		24 nM	20.6 nM								
COc1cc(CCN(C)C(=O)CCCCCCCCNc2cccc3c2C(=O)N(C2CCC(=O)NC2=O)C3=O)c(C)cc1Nc1ncc(Cl)c(Nc2ccccc2P(C)(C)=O)n1 (centres unmarked) [Compound 66]								23.6%	49.3%	36.5%	1730 nM	670 nM	1200 nM	1630 nM	
COc1cc(CCN(C)C(=O)CCCCCNc2cccc3c2C(=O)N(C2CCC(=O)NC2=O)C3=O)c(C)cc1Nc1ncc(Cl)c(Nc2ccccc2P(C)(C)=O)n1 (centres unmarked) [Compound 65]								26.2%		26.2%	2560 nM		2560 nM	1100 nM	
COc1cc(CCNCCCC(=O)N[C@H](C(=O)N2C[C@H](O)C[C@H]2C(=O)N[C@@H](C)c2ccc(-c3scnc3C)cc2)C(C)(C)C)c(C)cc1Nc1ncc(Cl)c(Nc2ccccc2S(=O)(=O)C(C)C)n1 [Compound 43]	38.1%	38.1%	1230 nM	1230 nM	289 nM										
CC[C@@H](NC(=O)C1CC(NC(=O)CCCCCCC(=O)N(C)CCc2cc(OC)c(Nc3ncc(Cl)c(Nc4ccccc4S(=O)(=O)C(C)C)n3)cc2C)CN1C(=O)[C@@H](NC(=O)[C@H](C)NC)C(C)(C)C)c1ccccc1 (some centres unmarked) [Compound 55]	74.6%	88.2%	624 nM	492 nM	296 nM	360 nM									102%
COc1cc(CCN(C)C(=O)CCCCCCC(=O)N[C@H](C(=O)N2C[C@H](O)C[C@H]2C(=O)N[C@@H](C)c2ccc(-c3scnc3C)cc2)C(C)(C)C)c(C)cc1Nc1ncc(Cl)c(Nc2ccccc2S(=O)(=O)C(C)C)n1 [compound 40, N^1-(4-((5-chloro-4-((2-(isopropylsulfonyl)phenyl)amino)pyrimidin-2-yl)amino)-5-methoxy-2-methylphenethyl)-N^8-((S)-1-((2S,4R)-4-hydroxy-2-(((S)-1-(4-(4-methylthiazol-5-yl)phenyl)ethyl)carbamoyl)pyrrolidin-1-yl)-3,3-dimethyl-1-oxobutan-2-yl)-N^1-methyloctanediamide]	68.6%	55.1%	392 nM	269 nM	149 nM	145 nM									41.6%
COc1cc(CCN(C)C(=O)CCCCCC#Cc2cccc3c2C(=O)N(C2CCC(=O)NC2=O)C3=O)c(C)cc1Nc1ncc(Cl)c(Nc2ccccc2P(C)(C)=O)n1 (centres unmarked) [Compound 62]								27.8%		27.8%	4380 nM		4380 nM	> 10000 nM	
CC[C@@H](NC(=O)[C@@H]1C[C@H](NC(=O)CCCCCCCC(=O)N(C)CCc2cc(OC)c(Nc3ncc(Cl)c(Nc4ccccc4S(=O)(=O)C(C)C)n3)cc2C)CN1C(=O)[C@@H](NC(=O)[C@H](C)NC)C(C)(C)C)c1ccccc1 [Compound 56]			163 nM	195 nM		226 nM	360 nM								
COc1cc(CCN(C)C(=O)CCOCCC(=O)N[C@H](C(=O)N2C[C@H](O)C[C@H]2C(=O)N[C@@H](C)c2ccc(-c3scnc3C)cc2)C(C)(C)C)c(C)cc1Nc1ncc(Cl)c(Nc2ccccc2P(C)(C)=O)n1 [compound 71, (2S,4R)-1-((S)-2-(3-(3-((4-((5-chloro-4-((2-(dimethylphosphoryl)phenyl)amino)pyrimidin-2-yl)amino)-5-methoxy-2-methylphenethyl)(methyl)amino)-3-oxopropoxy)propanamido)-3,3-dimethylbutanoyl)-4-hydroxy-N-((S)-1-(4-(4-methylthiazol-5-yl)phenyl)ethyl)pyrrolidine-2-carboxamide]								50.9%	43.7%	47.3%	543 nM	150 nM	350 nM	222 nM	
COc1cc(CCNCCCCCSC(C)(C)[C@H](NC(C)=O)C(=O)N2C[C@H](O)C[C@H]2C(=O)N[C@@H](C)c2ccc(-c3scnc3C)cc2)c(C)cc1Nc1ncc(Cl)c(Nc2ccccc2S(=O)(=O)C(C)C)n1 [Compound 48]	77.2%	92.8%	961 nM	786 nM	388 nM	611 nM									108%
COc1cc(CCN(C)C(=O)CCOCCOCCOCC#Cc2cccc3c2C(=O)N(C2CCC(=O)NC2=O)C3=O)c(C)cc1Nc1ncc(Cl)c(Nc2ccccc2P(C)(C)=O)n1 (centres unmarked) [Compound 63]								27.3%		27.3%	3910 nM		3910 nM	> 10000 nM	
COc1cc(CCN(C)C(=O)CCCCCCCC(=O)N[C@H](C(=O)N2C[C@H](O)C[C@H]2C(=O)N[C@@H](C)c2ccc(-c3scnc3C)cc2)C(C)(C)C)c(C)cc1Nc1ncc(Cl)c(Nc2ccccc2S(=O)(=O)C(C)C)n1 [compound 41, N^1-(4-((5-chloro-4-((2-(isopropylsulfonyl)phenyl)amino)pyrimidin-2-yl)amino)-5-methoxy-2-methylphenethyl)-N^9-((S)-1-((2S,4R)-4-hydroxy-2-(((S)-1-(4-(4-methylthiazol-5-yl)phenyl)ethyl)carbamoyl)pyrrolidin-1-yl)-3,3-dimethyl-1-oxobutan-2-yl)-N^1-methylnonanediamide]	56.2%	56.2%	626 nM	626 nM	176 nM										

More lines, now with the values ahead:

Dmax (EML4-ALK; [1])	Dmax (EML4-ALK; [2])	DC50 (EML4-ALK; [3])	DC50 (EML4-ALK; [4])	IC50 (H3122 cells; [5])	DC50 (EML4-ALK; [6])	IC50 (H3122 cells; Table 1)	Dmax (EML4-ALK; [7])	Dmax (EML4-ALK; [8])	Dmax (EML4-ALK; [9])	DC50 (EML4-ALK; [10])	DC50 (EML4-ALK; [11])	DC50 (EML4-ALK; [12])	IC50 (H3122 cells; [13])	Dmax (EML4-ALK; [14])	Structure (SMILES)
25.8%	23.8%	32 nM	32 nM	44.8 nM											COc1cc(CCN(C)C(=O)CCCNc2cccc3c2C(=O)N(C2CCC(=O)NC2=O)C3=O)c(C)cc1Nc1ncc(Cl)c(Nc2ccccc2S(=O)(=O)C(C)C)n1 (centres unmarked) [compound 1]
44.5%	44.5%	239 nM		149 nM											COc1cc(CCN(C)C(=O)CCCNC(=O)COc2cccc3c2C(=O)N(C2CCC(=O)NC2=O)C3=O)c(C)cc1Nc1ncc(Cl)c(Nc2ccccc2S(=O)(=O)C(C)C)n1 (centres unmarked) [compound 5, N-(4-((5-chloro-4-((2-(isopropylsulfonyl)phenyl)amino)pyrimidin-2-yl)amino)-5-methoxy-2-methylphenethyl)-4-(2-((2-(2,6-dioxopiperidin-3-yl)-1,3-dioxoisoindolin-4-yl)oxy)acetamido)-N-methylbutanamide]
							33.7%		33.7%	3740 nM		3740 nM	1720 nM		COc1cc(CCN(C)C(=O)CCCCCCCCNC(=O)COc2cccc3c2C(=O)N(C2CCC(=O)NC2=O)C3=O)c(C)cc1Nc1ncc(Cl)c(Nc2ccccc2P(C)(C)=O)n1 (centres unmarked) [Compound 59]
50.8%	47.8%	91 nM	63 nM	15.7 nM	36 nM									44.8%	COc1cc(CCN(C)C(=O)CCCCCCCCNC(=O)COc2cccc3c2C(=O)N(C2CCC(=O)NC2=O)C3=O)c(C)cc1Nc1ncc(Cl)c(Nc2ccccc2S(=O)(=O)C(C)C)n1 (centres unmarked) [compound 7, N-(4-((5-chloro-4-((2-(isopropylsulfonyl)phenyl)amino)pyrimidin-2-yl)amino)-5-methoxy-2-methylphenethyl)-9-(2-((2-(2,6-dioxopiperidin-3-yl)-1,3-dioxoisoindolin-4-yl)oxy)acetamido)-N-methylnonanamide]
24.1%	31.4%	67 nM	57 nM	76.9 nM	46 nM										COc1cc(CCN(C)C(=O)CCCCCNc2cccc3c2C(=O)N(C2CCC(=O)NC2=O)C3=O)c(C)cc1Nc1ncc(Cl)c(Nc2ccccc2S(=O)(=O)C(C)C)n1 (centres unmarked) [compound 2, N-(4-((5-chloro-4-((2-(isopropylsulfonyl)phenyl)amino)pyrimidin-2-yl)amino)-5-methoxy-2-methylphenethyl)-6-((2-(2,6-dioxopiperidin-3-yl)-1,3-dioxoisoindolin-4-yl)amino)-N-methylhexanamide]
